Test results published in ChEMBL document CHEMBL1201862, “PubChem BioAssay data set” (2004).
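Step 1: Grow cells in 96-well plates. Step 2: Expose to compound for 48 hours at 5 concentrations. Step 3: Interpolate endpoints linearly; if unreached, use highest concentration. At the GI50, growth is halved.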 Calls of active or inactive are those of the source. Cut-off read from the data, not from the text of the source: active = GI50 up to about 1.1 µM and inactive = higher.

Assays:
Test in all cases: inhibition of tumour cell growth, NCI panel, 48 h
[1] = test system: 786-0
[2] = test system: A498
[3] = test system: COLO 205
[4] = test system: EKVX
[5] = test system: HL-60
[6] = test system: KM12
[7] = test system: LOX IMVI
[8] = test system: MDA-MB-231
[9] = test system: MDA-MB-435
[10] = test system: MOLT-4
[11] = test system: Malme-3M
[12] = test system: NCI/ADR-RES
[13] = test system: RPMI-8226
[14] = test system: SF-268
[15] = test system: SK-MEL-28
[16] = test system: SNB-19
[17] = test system: SNB-75
[18] = test system: T47D
[19] = test system: U-251
[20] = test system: IGROV-1

Measured: GI50

COc1ccccc1-n1c(=O)n(C)c(=O)n1C(C)(C)C
inactive: [1] > 100 µM | [2] > 100 µM | [3] > 100 µM | [4] > 100 µM | [5] > 100 µM | [6] > 100 µM | [7] > 100 µM | [8] > 100 µM | [9] > 100 µM | [10] > 100 µM | [11] > 100 µM | [12] > 100 µM | [13] > 100 µM | [14] > 100 µM | [15] > 100 µM | [16] > 100 µM | [17] > 100 µM | [18] > 100 µM | [19] > 100 µM

CCCCc1ccc(Nc2nc(Cl)c3ncn(C4CC(Oc5ccc(C)cc5)C(COc5ccc(C)cc5)O4)c3n2)cc1 (stereo unspecified)
inactive: [1] > 100 µM | [2] > 100 µM | [3] > 100 µM | [4] > 100 µM | [5] 89.9 µM | [20] > 100 µM | [6] > 100 µM | [7] > 100 µM | [8] > 100 µM | [9] > 100 µM | [10] > 100 µM | [11] > 100 µM | [12] > 100 µM | [13] > 100 µM | [14] > 100 µM | [16] > 100 µM | [17] > 100 µM | [18] > 100 µM

CCOc1ccc(NCC2CC/C(=C\C=C\c3ccccc3)C2=O)cc1 (stereo unspecified)
inactive: [1] 5.25 µM | [2] 28.6 µM | [3] 13.7 µM | [4] 37.3 µM | [5] 17.8 µM | [20] 12.5 µM | [6] 6.07 µM | [7] 11 µM | [8] 9.14 µM | [9] 12.2 µM | [10] 5.2 µM | [11] 22 µM | [12] 25.7 µM | [13] 10.9 µM | [14] 16.4 µM | [15] 16.4 µM | [16] 24 µM | [17] 23.2 µM | [18] 17.3 µM | [19] 18.8 µM

N=C(N)N/N=C\c1ccc(C2CCNCC2)cc1
inactive: [1] > 100 µM | [2] > 100 µM | [3] > 100 µM | [4] > 100 µM | [20] > 100 µM | [6] > 100 µM | [7] > 100 µM | [8] > 100 µM | [9] > 100 µM | [10] > 100 µM | [11] > 100 µM | [12] > 100 µM | [13] > 100 µM | [14] > 100 µM | [15] > 100 µM | [16] > 100 µM | [17] > 100 µM | [18] > 100 µM | [19] > 100 µM

CCOC(=O)c1cc2c([N+](=O)[O-])c(NC(C)=O)ccc2s1
inactive: [1] 62.8 µM | [2] 29.9 µM | [3] 34.8 µM | [4] 12.6 µM | [5] 31.7 µM | [20] 72.9 µM | [6] 74.8 µM | [7] 60.4 µM | [8] 24.1 µM | [9] 76.4 µM | [10] 31.4 µM | [11] 28.2 µM | [12] 55.2 µM | [13] 24.4 µM | [14] 50.7 µM | [15] > 100 µM | [16] > 100 µM | [17] 19.3 µM | [18] 15 µM | [19] 44.6 µM

C=CC1(O)CCCC=C1COCc1ccccc1 (stereo unspecified)
inactive: [1] > 100 µM | [2] > 100 µM | [3] > 100 µM | [4] > 100 µM | [5] 27.4 µM | [20] 16.6 µM | [6] 50.2 µM | [7] 18.8 µM | [8] > 100 µM | [9] 47.5 µM | [10] 23.4 µM | [11] > 100 µM | [12] > 100 µM | [13] 23.8 µM | [14] 67 µM | [15] 71 µM | [16] > 100 µM | [17] 61.4 µM | [18] 64 µM | [19] > 100 µM

CC(C(=O)N1c2ccccc2Sc2ccccc21)N1c2ccccc2Sc2ccccc21 (stereo unspecified)
inactive: [1] 88.1 µM | [2] 31.8 µM | [3] 85.7 µM | [4] > 100 µM | [5] 77.6 µM | [20] 79.8 µM | [6] 72.1 µM | [7] > 100 µM | [8] > 100 µM | [9] > 100 µM | [10] 42.9 µM | [11] > 100 µM | [12] > 100 µM | [13] > 100 µM | [14] > 100 µM | [15] > 100 µM | [16] > 100 µM | [17] 96.4 µM | [18] 46.1 µM | [19] 60 µM
